Columns and labels:
[1] = tested on: HCV replicon Wild Type (mADE); test: 2-Day HCV Replicon IC50 Assay, wild type replicon; type: cell-based; settings: for Fold Change: ratio of IC50 to Wild type IC50 for the same inhibitor
Experimental: (§1) Huh-7 cells were propagated in Dulbecco's modified Eagle's medium (DMEM, JRH Biosciences, Lenexa, Kans.) supplemented with 10% heat-inactivated FBS (fetal bovine serum), 2 mM L-glutamine, and nonessential amino acids (JRH). The cells were transfected with an in vitro transcribed HCV replicon RNA identical to replicon 1377neo/NS3-3′/wt as described by Lohmann et al. (1999). Stable cell clones were selected and maintained in the presence of 250 μg/mL G418 (Invitrogen, Carlsbad, Calif.). […] The HCV NS3 protease variant replicons were constructed in the background of the mADE wild-type replicon as described previously [Chao Lin et al., “In Vitro Resistance Studies of Hepatitis C Virus Serine Protease Inhibitors, VX-950 and BILN 2061: Structural Analysis Indicates Different Resistance Mechanisms,” Journal of Biological Chemistry, 279(17); pp. 17508-17514 (2004)]. The replicon cells were propagated in DMEM supplemented with 10% FBS, 2 mM L-glutamine, nonessential amino acids, and 250 μg/mL G418. The cells were split twice per week in fresh media upon reaching confluence. There are approximately 200-300 copies of HCV RNA per 24-2 replicon cell.
(§2) HCV replicon RNA from cells was measured using the Quantigene Discover XL kit (Panomics Inc., Fremont Calif.) as per the manufacturer's instructions. Briefly, compound-treated replicon cells were lysed and immobilized on to capture plates using HCV specific oligonucleotides (designed based on the 5′ UTR region of HCV 1b genome sequence AJ238799 in the GenBank database) over night and the relative amounts of captured RNA was measured using oligonucleotide probe sets as per the manufacturer's instructions.
(§3) On the day prior to the assay, 10,000 replicon cells were plated per well of a 96-well plate and allowed to attach and grow overnight in DMEM (Invitrogen, Carlsbad, Calif.) supplemented with 10% heat-inactivated FBS (JRH Biosciences, Lenexa, Kans.), 2 mM L-glutamine (Invitrogen), nonessential amino acids (Invitrogen) and 250 μg/ml G418 (Invitrogen). Next day, the medium was removed and antiviral agents that were serially diluted in DMEM containing 2% FBS and 0.5% DMSO (Sigma Chemical Co., St. Louis, Mo.) without G418, was added. The replicon cells were incubated with the antiviral agents for 48 h. HCV replicon RNA from cells was measured using the Quantigene Discover XL kit (Panomics Inc., Fremont Calif.) as per the manufacturer's instructions. Briefly, compound-treated replicon cells were lysed and immobilized onto capture plates using HCV specific oligonucleotides overnight and the relative amounts of captured RNA was measured using oligonucleotide probe sets as per the manufacturer's instructions. Unless indicated otherwise, each data point represents the average of three replicates. The IC50 is the concentration of the compound at which the HCV replicon RNA level in cells is reduced by 50% as compared to the untreated replicon cell controls. To monitor the effect of compounds on cell proliferation or cell viability, replicon cells were treated with serially diluted compounds for 48 h, after which cell viability was determined using a CellTiter Glo assay (Promega, Madison, Wis.). Each CC50 is derived from at least two replicates and is the concentration of the compound at which the number of viable cells is reduced by 50% as compared to untreated cell controls. The IC50 and CC50 was determined using 4-parameter curve fitting in the SoftMax Pro program (Molecular Devices, Sunnyvale, Calif.).
(§4) The sensitivity of NS3 protease variants to ribavirin and interferon was assessed in a 2-Day HCV Replicon IC50 Assay.

[2] = tested on: HCV NS3 protease variant replicon A156V; settings: A156V replicon versus wild-type (Lin et al., 2005); cited from earlier work
[3] = tested on: HCV NS3 protease variant replicon A156T; settings: A156T replicon versus wild-type (Lin et al., 2005); cited from earlier work
[4] = tested on: HCV NS3 protease variant replicon V36M+R155K; test: microbe, parasite or virus in culture; type: cell-based; settings: for Fold Change: V36M-R155K, ratio of mutant IC50 to Wild type IC50 for the same inhibitor
Experimental: as §1, §2, §3, §4

[5] = tested on: HCV NS3 protease variant replicon R155M; test: microbe, parasite or virus in culture; type: cell-based
Experimental: as §1, §2, §3, §4

[6] = tested on: HCV NS3 protease variant replicon V36A; test: microbe, parasite or virus in culture; type: cell-based; settings: for Fold Change: V36A, ratio of mutant IC50 to Wild type IC50 for the same inhibitor
Experimental: as §1, §2, §3, §4

[7] = tested on: HCV NS3 protease variant replicon R155K; test: microbe, parasite or virus in culture; type: cell-based; settings: for Fold Change: R155K, ratio of mutant IC50 to Wild type IC50 for the same inhibitor
Experimental: as §1, §2, §3, §4

[8] = tested on: HCV NS3 protease variant replicon R155T; test: microbe, parasite or virus in culture; type: cell-based
Experimental: as §1, §2, §3, §4

[9] = tested on: HCV NS3 protease variant replicon T54A; test: microbe, parasite or virus in culture; type: cell-based; settings: for Fold Change: T54A, ratio of mutant IC50 to Wild type IC50 for the same inhibitor
Experimental: as §1, §2, §3, §4

[10] = tested on: HCV NS3 protease variant replicon V36A-R155T; test: microbe, parasite or virus in culture; type: cell-based
Experimental: as §1, §2, §3, §4

[11] = tested on: HCV NS3 protease variant replicon V36M; test: microbe, parasite or virus in culture; type: cell-based; settings: for Fold Change: V36M, ratio of mutant IC50 to Wild type IC50 for the same inhibitor
Experimental: as §1, §2, §3, §4

[12] = tested on: HCV NS3 protease variant replicon V36M-R155T; test: microbe, parasite or virus in culture; type: cell-based
Experimental: as §1, §2, §3, §4

[13] = tested on: HCV NS3 protease variant replicon V36A-R155K; test: microbe, parasite or virus in culture; type: cell-based
Experimental: as §1, §2, §3, §4

[14] = tested on: HCV replicon cells (wild-type clone 24-2, Huh-7); test: 2-day Replicon assay with bDNA quantitation, checkerboard combination (Bliss independence / MacSynergy); type: cell-based; settings: Hepatitis C virus, Huh-7, 48 h, polymerase inhibitor in the checkerboard experiment with VX-950, read-out: Polymerase Inhibitor IC50
Experimental: Huh-7 cells were propagated in Dulbecco's modified Eagle's medium (DMEM, JRH Biosciences, Lenexa, Kans.) supplemented with 10% heat-inactivated FBS (fetal bovine serum), 2 mM L-glutamine, and nonessential amino acids (JRH). The cells were transfected with an in vitro transcribed HCV replicon RNA identical to replicon 1377neo/NS3-3′/wt as described by Lohmann et al. (1999). Stable cell clones were selected and maintained in the presence of 250 μg/mL G418 (Invitrogen, Carlsbad, Calif.). One of the clones, 24-2, was used as the wild-type in the subsequent HCV replicon assays for combination studies. The HCV NS3 protease variant replicons were constructed in the background of the mADE wild-type replicon as described previously [Chao Lin et al., “In Vitro Resistance Studies of Hepatitis C Virus Serine Protease Inhibitors, VX-950 and BILN 2061: Structural Analysis Indicates Different Resistance Mechanisms,” Journal of Biological Chemistry, 279(17); pp. 17508-17514 (2004)]. The replicon cells were propagated in DMEM supplemented with 10% FBS, 2 mM L-glutamine, nonessential amino acids, and 250 μg/mL G418. The cells were split twice per week in fresh media upon reaching confluence. There are approximately 200-300 copies of HCV RNA per 24-2 replicon cell.
as §2, §3
The effects of drug-drug combinations were evaluated using the Bliss independence model [W. R. Greco et al., “The search for synergy: a critical review from a response surface perspective,” Pharmacol. Rev., 47, pp. 331-385 (1995)]. The experimental data were analyzed by using MacSynergy, a three-dimensional analytical method developed by Prichard and Shipman [M. N. Prichard and C. […]

[15] = tested on: HCV NS3 protease variant replicon A156T; test: 2-Day HCV Replicon IC50 Assay, A156T; type: cell-based
Experimental: as §1, §2, §3, §4

[16] = tested on: HCV NS3 protease variant replicon A156V; test: 2-Day HCV Replicon IC50 Assay, A156V; type: cell-based
Experimental: as §1, §2, §3, §4

[17] = Hepatitis C virus, read-out: Avg. IC50 ± STDEV

IFN-α
Avg. IC50 ([1]; IFN-α, Wild Type (mADE) replicon): 11.6 ± 1.1 units/ml
Fold Change ([1]; Wild Type replicon): 1.0
sensitivity of replicon [2]: comparable to the wild-type
sensitivity of replicon [3]: comparable to the wild-type
Avg. IC50 ([4]; IFN-α, V36M-R155K replicon): 10.1 ± 5.9 units/ml
Fold Change [4]: 0.9
Avg. IC50 ([5]; IFN-α, R155M replicon): 4.9 ± 1.0 units/ml
Fold Change ([5]; R155M, ratio of mutant IC50 to Wild type IC50 for the same inhibitor): 0.4
Avg. IC50 ([6]; IFN-α, V36A replicon): 10.3 ± 6.0 units/ml
Fold Change [6]: 0.9
Avg. IC50 ([7]; IFN-α, R155K replicon): 15.2 ± 12.3 units/ml
Fold Change [7]: 1.3
Avg. IC50 ([8]; IFN-α, R155T replicon): 4.8 ± 3.3 units/ml
Fold Change ([8]; R155T, ratio of mutant IC50 to Wild type IC50 for the same inhibitor): 0.4
Avg. IC50 ([9]; IFN-α, T54A replicon): 3.9 ± 0.5 units/ml
Fold Change [9]: 0.3
Avg. IC50 ([10]; IFN-α, V36A-R155T replicon): 3.9 ± 2.1 units/ml
Fold Change ([10]; V36A-R155T, ratio of mutant IC50 to Wild type IC50 for the same inhibitor): 0.3
Avg. IC50 ([11]; IFN-α, V36M replicon): 11.3 ± 5.9 units/ml
Fold Change [11]: 1.0
Avg. IC50 ([12]; IFN-α, V36M-R155T replicon): 3.1 ± 0.2 units/ml
Fold Change ([12]; V36M-R155T, ratio of mutant IC50 to Wild type IC50 for the same inhibitor): 0.3
Avg. IC50 ([13]; IFN-α, V36A-R155K replicon): 6.8 ± 0.5 units/ml
Fold Change ([13]; V36A-R155K, ratio of mutant IC50 to Wild type IC50 for the same inhibitor): 0.6

CCN(CC)C1CCN(C(=O)Cn2c(-c3ccc(Cl)cc3)c(C3CCCCC3)c3ccc(C(=O)O)cc32)CC1 [Formula III]
IC50 ([1]; Hepatitis C virus, Table 8, Wild Type replicon, read-out: Avg. IC50 ± STDEV): 313 ± 32 nM
Fold Change ([1]; Wild Type replicon): 1.0
IC50 [14]: 700 nM
Fold Change ([15]; A156T, ratio of mutant IC50 to Wild type IC50 for the same inhibitor): 1.0
IC50 [15, 17]: 306 ± 10 nM
Fold Change ([16]; A156V, ratio of mutant IC50 to Wild type IC50 for the same inhibitor): 0.9
IC50 [16, 17]: 297 ± 66 nM
Fold Change [4]: 1.3
IC50 [6, 17]: 369 ± 66 nM
Fold Change [6]: 1.2
IC50 [7, 17]: 390 ± 65 nM
Fold Change [7]: 1.2
IC50 [9, 17]: 337 ± 45 nM
Fold Change [9]: 1.1
IC50 [11, 17]: 227 ± 64 nM
Fold Change [11]: 0.7
